Publication PMC6935173, “Characterization of a vacuolar sucrose transporter, HbSUT5, from Hevea brasiliensis: involvement in latex production through regulation of intracellular sucrose transport in the bark and laticifers” (BMC Plant Biology, 2019)

T1: HbSUT5 (Hevea brasiliensis, UniProt A0T058)
T1 construct: gene SUT5; ORF primers give start MAIPQ
T1 sequence (A0T058 1-498): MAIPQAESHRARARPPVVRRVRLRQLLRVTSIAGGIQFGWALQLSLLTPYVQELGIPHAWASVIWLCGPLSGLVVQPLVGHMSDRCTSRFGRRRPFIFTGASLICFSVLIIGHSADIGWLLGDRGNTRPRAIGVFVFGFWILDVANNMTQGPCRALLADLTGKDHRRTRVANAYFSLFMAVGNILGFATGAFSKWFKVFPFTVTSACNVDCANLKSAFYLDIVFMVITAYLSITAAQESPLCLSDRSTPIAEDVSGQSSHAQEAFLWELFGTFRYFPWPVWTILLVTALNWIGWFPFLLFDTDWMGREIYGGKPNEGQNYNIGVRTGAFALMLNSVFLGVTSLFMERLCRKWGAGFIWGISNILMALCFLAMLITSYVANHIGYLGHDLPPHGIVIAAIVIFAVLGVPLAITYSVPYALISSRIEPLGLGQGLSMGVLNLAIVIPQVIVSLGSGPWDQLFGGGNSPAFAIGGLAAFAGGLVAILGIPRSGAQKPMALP

B1: HbSUT5 (Hevea brasiliensis) (protein)
chain: T1 sequence (A0T058 1-498)
notes: ORF primers give start MAIPQ

Key:
[1] = biological target: T1, HbSUT5; test: competition with […]-sucrose uptake in yeast SEY6210; format: cell-based
[2] = substrate: OC[C@H]1O[C@@](CO)(O[C@H]2O[C@H](CO)[C@@H](O)[C@H](O)[C@H]2O)[C@@H](O)[C@@H]1O; test: cells, lysate or membranes; format: cell-based, Hevea brasiliensis; conditions: pH 5.5, 0.5-8 mM sucrose, labelled compound, H+ symport, whole yeast cells

Row | Molecule | activity at 10000 µM [1] | Km [2]
1 | OC[C@H]1O[C@H](O[C@H]2[C@H](O)[C@@H](O)C(O)O[C@@H]2CO)[C@H](O)[C@@H](O)[C@@H]1O (some centres unmarked) [Maltose] | 44 ± 3.4% | 
2 | B1 |  | 2030 µM
